Where two headings read alike, the source gives them in different places.
Columns and labels:
[1] = system: MRSA USA300; assay: Spread agar plates, photoinactivation of catalase with silver cation; format: cell-based, methicillin-resistant Staphylococcus aureus
[2] = system: E. coli BW25113; assay: CFU, photoinactivation of catalase with silver cation; format: cell-based, Escherichia coli; details: 30 and 60 minutes
[3] = system: CASC5314; details: 410 nm plus low-concentration H2O2; log-phase or stationary-phase
Description: (§1) PrestoBlue viability assay: First log-phase fungal pathogens were prepared by diluting overnight-cultured fungal pathogens into fresh YPD broth at a ratio of 1:50 and cultured for another 2-3 hours at 30 C with the shaking speed of 200 rpm. After that, the fungal concentration was adjusted to be around 1×10^8 cells/ml by centrifuging or further dilution with PBS. 10 μl of the above fungal solution was exposed to 410 nm for 5 min (150 mW/cm^2). After that, the exposed sample was collected into 990 μl of sterile PBS, then supplemented with treatment agents. Aliquots were made from the above sample into a 96-well plate, with each well containing 100 μl. Then 100 μl sterile YPD broth and 23 μl of PrestoBlue were added into the same well. Fluorescence signal at 590 nm from each well was recorded in a time-course (up to 18 hours with the interval of 30 min) manner at an excitation of 560 nm. For each strain, in order to know the exact number of fungal pathogens in each well, the corresponding fluorescence signals were recorded from fungal pathogens with known numbers, however no external treatments.

[4] = system: clinical fungal isolates; details: 410 nm plus H2O2; more than twenty different clinical fungal isolates
Description: as §1

[5] = system: Candida albicans SC5314
Description: CFU test to quantify the treatment efficacy: Quantification of antifungal treatment schemes were achieved as following: overnight cultured fungal specimen was washed by sterile PBS. And log-phase fungal pathogens were prepared by dilution into fresh YPD broth at a ratio of 1:50 and cultured for another 2-3 hours at 30° C. with the shaking speed of 200 rpm. After that, the fungal concentration was adjusted to be around 1×10^8 cells/ml by centrifuging or further dilution with PBS. 10 μl of the above fungal solution was exposed to 410 nm for 5 min (150 mW/cm^2). After that, the exposed sample was collected into 990 μl of sterile PBS, then supplemented with treatment agents. Later, CFU of fungal cells was enumerated by serial dilution and cultured in YPD agar plates for 48 hours.

[6] = system: stationary-phase MRSA USA300
Description: (§2) CFU experiments to test the potential synergy between photoinactivation of catalase and H2O2: Overnight-cultured bacteria was centrifuged, the supernatant was discarded, and the pellet was resuspended with the same amount of PBS. The laser source used in the study is nanosecond (ns) pulsed OPO laser purchased from OPOTEK Inc, model number as Opolette HE355 LD, having the following key specifications: wavelength range, 410-2400 nm; pulse repetition rate, 20 Hz; maximum pulse energy at 460 nm, 8 mJ; pulse duration, 5 nanosecond; spectral linewidth, 4-6 cm-1; and pulse-to-pulse stability, <5%. For each bacterial strain there were four groups: untreated one, ns-410 nm-treated group, H2O2 (22 or 44 mM)-treated group, ns-410 nm plus H2O2 (22 or 44 mM)-treated group. Dose for ns-410 nm exposure was 15 J/cm^2. H2O2 was incubated with bacteria for 30 min at 37° C. with the shaking speed of 200 rpm. After incubation, bacterial burden from each group was serial diluted, inoculated onto TSA plates, then counted by enumeration of these plates.

[7] = system: Salmonella enterica; details: ns-410 nm combined with H2O2 22 mM
Description: as §2

[8] = system: stationary-phase Pseudomonas aeruginosa
Description: as §2

[9] = system: Enterococcus faecalis NR-31970; assay: CFU test of synergy between photoinactivation of catalase and ROS-generating antibiotics (catalase-negative control); format: cell-based; details: ns-410 nm plus tobramycin 2 μg/ml, 4-hour incubation; catalase-negative strain
Description: (§3) Then prior to any treatments, the above solution was incubated with antibiotics (10 μg/ml) for 1 hour. For each bacterial strain, four groups were tested: untreated one, ns-410 nm-treated group, antibiotic (2 μg/ml)-treated group, ns-410 nm plus antibiotic (2 μg/ml)-treated group. Dose for ns-410 nm exposure was 15 J/cm2.

[10] = system: E. coli BW25113; assay: CFU test of synergy between photoinactivation of catalase and ROS-generating antibiotics; format: cell-based, Escherichia coli; details: ns-410 nm (15 J/cm2) plus tobramycin 2 μg/ml, 4-hour incubation
Description: as §3

[11] = system: C. auris strains; assay: PrestoBlue viability assay, amp B; format: cell-based, Candida auris
[12] = H2O2 22 mM after photoinactivation of catalase (15 J/cm2)

In the case of `[Ag+]` [silver cation], the MRSA eliminated ([1]; ns-410 nm combined with 10 μM silver cation, one hour after treatment) is reported as “about 90%”, the antimicrobial effect ([1]; silver cation alone) is reported as “does not exert any significant antimicrobial effect” and the “killing effect (CFU ml-1)” value ([2]; 0.5 μM Ag+ alone) is reported as “doesn't exert any significant killing effect”. The “reduction of bacterial burden” value ([2]; CW-410 (22 J/cm^2) combined with 0.5 μM Ag+) was “didn't significantly reduce bacterial burden” and the “reduction of bacterial burden” value ([2]; ns-410 (22 J/cm^2) in combination with 0.5 μM Ag+) was “around 99%”.
With `OO` [H2O2, hydrogen peroxide] the “effect of photoinactivation of catalase on killing by H2O2 (PrestoBlue fluorescence)” value [3] was “always boosts the killing effect”, the “killing by synergistic therapy (PrestoBlue)” value [4] was “significant killing was consistently found” and the “enhancement of the function of H2O2 after photoinactivation of catalase” value ([5]; 410 nm exposure then H2O2, FIG. 11) was “more than five”. The “killing effect (CFU ml-1)” value ([5]; H2O2 alone, 44 mM (0.15%), 1.5-hour incubation, stationary-phase) was “doesn't exert significant killing effect”, the “eradication (time-killing, CFU)” value ([5]; low-concentration H2O2 after 410 nm exposure, FIG. 11) was “eradication was achieved” and the eradication ([5]; ns-410, ns-420 or ns-430 combined with H2O2 44 mM) was “total eradication”. For the same compound, the “reduction of fungal burden” value ([5]; ns-450 or ns-480 nm combined with H2O2 44 mM) was “reduced a similar amount of fungal burden as H2O2-alone”, the reduction of burden ([5]; ns-light (24 J/cm^2) in combination with H2O2 44 mM) was “around four” and the “killing efficacy, ns-410 nm plus H2O2 compared to CW-410 nm plus H2O2” value ([6]; FIG. 6) was “significantly more effective”. For the same compound, the “reduction of bacterial burden” value [6, 12] was at least 3 log 10 reduction, the “reduction of bacterial burden” value ([6]; ns-410 nm (15 J/cm2) in combination with H2O2 22 mM) was “approximately four” and the “reduction of bacterial burden” value ([6]; ns-430 nm combined with H2O2 22 mM) was “around 99%”. For the same compound, the “reduction of bacterial burden” value ([6]; ns-450 or ns-460 nm combined with H2O2 22 mM) was “around 90%”, the “reduction of bacterial burden” value ([6]; ns-470 nm combined with H2O2 22 mM) was “around 50%” and the antimicrobial effect ([6]; ns-480 nm combined with H2O2 22 mM) was “barely exerts an antimicrobial effect”. The enhanced killing effect [7] was “around five”, the “killing efficacy, ns-410 nm plus H2O2 compared to CW-410 nm plus H2O2” value ([8]; FIG. 6) was “significantly more effective” and the “reduction of bacterial burden” value [8, 12] was at least 3 log 10 reduction. For the same compound, the eradication ([8]; H2O2 22 mM combined with 410 nm exposure (15 J/cm2)) was “total eradication” and the “antimicrobial effect (CFU ml-1)” value ([8]; H2O2 alone, 22 mM) was “didn't exert any significant antimicrobial effect”.
`NC[C@H]1O[C@H](O[C@H]2[C@H](O)[C@@H](O[C@H]3O[C@H](CO)[C@@H](O)[C@H](N)[C@H]3O)[C@H](N)C[C@@H]2N)[C@H](N)C[C@@H]1O` [tobramycin, Tobramycin] was tested, and the “enhanced killing effect in combination-treated group” value [9] was “did not produce any enhanced killing effect” and the “enhancement of killing in combination-treated group” value [10] was “More than 100 times”.
With `C[C@@H]1[C@H](O)[C@@H](C)/C=C/C=C/C=C/C=C/C=C/C=C/C=C/[C@H](O[C@@H]2O[C@H](C)[C@@H](O)[C@H](N)[C@@H]2O)C[C@@H]2O[C@](O)(C[C@@H](O)C[C@@H](O)[C@H](O)CC[C@@H](O)C[C@@H](O)CC(=O)O[C@H]1C)C[C@H](O)[C@H]2C(=O)O` [amp B, amphotericin B] the “eradication (PrestoBlue fluorescence)” value ([11]; 410 nm plus amp B, same result with 410 nm without amp B, ten strains) was “total eradication” and the “susceptibility (PrestoBlue fluorescence)” value ([11]; amp B alone, without photoinactivation of catalase) was “some C. auris strains were resilient”.

From patent US12064641B2, “Bactericidal methods and compositions” (Pulsethera, Inc., priority 2019, dated 2024)
